The source of these data is PubChem BioAssay AID2060907 (Molecular Pharmacology Branch, DTP, NCI, 2025).

Structures are written as SMILES.

The test has as its system 388556-164-R-J1-PDC complex spheroid viability. The test is described as follows: Anticancer human tumor 388556-164-R-J1-PDC patient-derived colon adenocarcinoma cell line growth inhibition [RAS]. To be noted: for viability, T/C: stronger effect = lower value. In outline:
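Agents were tested in combination matrices in half-log decrements from a top concentration at or near clinical Cmax (10 microM if undetermined). Targets were multi-cell spheroids of tumour lines plus HUVEC and MSC stromal cells.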
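Also: spheroids exposed to compound for 7 days before readout.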
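For viability, T/C in this document: 100% = DMSO vehicle control luminescence.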

For `CCC(CC)c1cc(NC2CCC(N)C2)n2nccc2n1` (centres undefined) + C=CC(=O)N1CCN(c2nc(OCC3CCCN3C)nc3c(F)c(-c4nc(N)cc(C)c4C(F)(F)F)c(Cl)cc23)C(C)C1, the IC50 reads like this: (curve of first compound, second compound 0.00316 µM) 2730 nM; (curve of first compound, second compound 0.01 µM) 2700 nM; (curve of first compound, second compound 0.0316 µM) 2770 nM; (curve of first compound, second compound 0.1 µM) 2470 nM; (curve of first compound, second compound 0.316 µM) 2460 nM; (curve of first compound, second compound 1 µM) 2340 nM. Moreover, the viability, T/C is 98.2% (second compound 0.00316 µM, first compound 0.0316 µM); 98.6% (second compound 0.00316 µM, first compound 0.1 µM); 106% (second compound 0.00316 µM, first compound 0.316 µM); 93.9% (second compound 0.00316 µM, first compound 1 µM); 43.6% (second compound 0.00316 µM, first compound 3.16 µM); 29.6% (second compound 0.00316 µM, first compound 10 µM). In addition, the viability, T/C was 97.2% (second compound 0.01 µM, first compound 0.0316 µM); 109% (second compound 0.01 µM, first compound 0.1 µM); 102% (second compound 0.01 µM, first compound 0.316 µM); 96% (second compound 0.01 µM, first compound 1 µM); 42.6% (second compound 0.01 µM, first compound 3.16 µM); 27.8% (second compound 0.01 µM, first compound 10 µM). Also, the viability, T/C by setting is: (second compound 0.0316 µM, first compound 0.0316 µM) 96%; (second compound 0.0316 µM, first compound 0.1 µM) 104%; (second compound 0.0316 µM, first compound 0.316 µM) 106%; (second compound 0.0316 µM, first compound 1 µM) 101%; (second compound 0.0316 µM, first compound 3.16 µM) 43.3%; (second compound 0.0316 µM, first compound 10 µM) 29.9%. In addition, the viability, T/C is 97.5% (second compound 0.1 µM, first compound 0.0316 µM); 95.9% (second compound 0.1 µM, first compound 0.1 µM); 102% (second compound 0.1 µM, first compound 0.316 µM); 98.2% (second compound 0.1 µM, first compound 1 µM); 36.8% (second compound 0.1 µM, first compound 3.16 µM); 26.5% (second compound 0.1 µM, first compound 10 µM). Also, the viability, T/C runs as follows: (second compound 0.316 µM, first compound 0.0316 µM) 104%; (second compound 0.316 µM, first compound 0.1 µM) 112%; (second compound 0.316 µM, first compound 0.316 µM) 109%; (second compound 0.316 µM, first compound 1 µM) 105%; (second compound 0.316 µM, first compound 3.16 µM) 34.6%; (second compound 0.316 µM, first compound 10 µM) 28.5%. The viability, T/C runs as follows: (second compound 1 µM, first compound 0.0316 µM) 98.6%; (second compound 1 µM, first compound 0.1 µM) 100%; (second compound 1 µM, first compound 0.316 µM) 109%; (second compound 1 µM, first compound 1 µM) 111%; (second compound 1 µM, first compound 3.16 µM) 30.7%; (second compound 1 µM, first compound 10 µM) 27.6%.
Take `CC(=O)OC12COC1CC(O)C1(C)C(=O)C(O)C3=C(C)C(OC(=O)C(O)C(NC(=O)OC(C)(C)C)c4ccccc4)CC(O)(C(OC(=O)c4ccccc4)C21)C3(C)C` (centres undefined): the viability, T/C (compound 0.0316 µM) was 89.3% [middle of 4 runs]; the viability, T/C (compound 0.1 µM) was 74.3% [middle of 4 runs]; the viability, T/C (compound 0.316 µM) is 75% [middle of 4 runs]; the viability, T/C (compound 1 µM) was 78.8% [middle of 4 runs]; the viability, T/C (compound 3.16 µM) is 78.5% [middle of 4 runs]; the viability, T/C (compound 10 µM) was 75.2% [middle of 4 runs]. For the same compound, the IC50 (curve of compound) was above 10000 nM.
For the compound `Cc1nc(N2CCC3(CC2)COC(C)C3N)c(CO)nc1Sc1ccnc(N)c1Cl` (centres undefined), the viability, T/C reads like this: (compound 0.1 µM) 81.2% [middle of 4 runs]; (compound 0.316 µM) 70.5% [middle of 4 runs]; (compound 1 µM) 62.4% [middle of 4 runs]; (compound 3.16 µM) 53.9% [middle of 4 runs]; (compound 10 µM) 46.1% [middle of 4 runs].

One may read the IC50 as the point on the concentration scale where inhibition reaches its midpoint. A word on the viability, T/C: it is the ratio of treated to control.
